Experimental data reported in US20230340011A1 (Asteroid Therapeutics, priority 2022, published 2023).

Columns and labels:
SREBP-2 = SREBP-2 (Homo sapiens (Human), UniProt Q12772); assay: In vitro assay SREBP-2: PathHunter U2OS SREBP-2 Nuclear Translocation Cell Line, U18666A-stimulated; format: cell-based; conditions: PathHunter U2OS SREBP-2 nuclear translocation cells, U18666A 10 μM, overnight (16 hours)
LXRβ = LXRβ (Homo sapiens (Human), UniProt P55055); assay: In vitro assay LXRβ: PathHunter NHR CHO cells, LXRβ / Steroid Receptor Co-activator Peptide enzyme fragment complementation; format: cell-based; conditions: PathHunter NHR CHO cells, full-length human LXRβ and SRCP, chemiluminescent signal; read-out: LXRβ PPI
Procedure, shortened: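 Enzyme fragment complementation read-out: CHO cells stably expressing ProLink-tagged full-length human LXRβ plus nuclear enzyme acceptor–SRCP fusion, seeded and held overnight at 37° C. Medium with charcoal-dextran filtered serum; final vehicle 1%. Chemiluminescence measured after signal generation.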

Sequence of LXRβ (P55055 whole entry, the tested form may be a part): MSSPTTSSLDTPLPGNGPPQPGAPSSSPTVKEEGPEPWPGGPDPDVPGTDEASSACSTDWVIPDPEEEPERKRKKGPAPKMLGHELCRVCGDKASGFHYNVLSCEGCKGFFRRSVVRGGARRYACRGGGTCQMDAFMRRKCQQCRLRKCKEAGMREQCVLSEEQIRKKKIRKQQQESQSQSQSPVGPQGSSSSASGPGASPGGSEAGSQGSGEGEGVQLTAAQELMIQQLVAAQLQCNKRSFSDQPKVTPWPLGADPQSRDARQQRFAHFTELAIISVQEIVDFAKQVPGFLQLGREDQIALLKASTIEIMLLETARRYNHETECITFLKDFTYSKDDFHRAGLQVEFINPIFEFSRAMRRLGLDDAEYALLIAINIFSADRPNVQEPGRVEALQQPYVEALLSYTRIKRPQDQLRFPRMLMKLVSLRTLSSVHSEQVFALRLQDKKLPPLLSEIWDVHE

SMILES	IC50 (SREBP-2)	EC50 (LXRβ)
C[C@H](CCC(=O)N1CCN(C(=O)c2ccncc2)[C@@H](C)C1)[C@H]1CC[C@H]2[C@@H]3CC=C4C[C@@H](O)CC[C@]4(C)[C@H]3CC[C@]12C [Example 577, (R)-4-((3S,8S,9S,10R,13R,14S,17R)-3-hydroxy-10,13-dimethyl-2,3,4,7,8,9,10,11,12,13,14,15,16,17-tetradecahydro-1H-cyclopenta[a]phenanthren-17-yl)-1-((S)-4-isonicotinoyl-3-methylpiperazin-1-yl)pentan-1-one]	< 0.25 µM	> 10 µM
C[C@H](CCC(=O)N1CCC[C@H](O)C1)[C@H]1CC[C@H]2[C@@H]3CC=C4C[C@@H](O)CC[C@]4(C)[C@H]3CC[C@]12C [Example 103, (R)-4-((3S,8S,9S,10R,13R,14S,17R)-3-hydroxy-10,13-dimethyl-2,3,4,7,8,9,10,11,12,13,14,15,16,17-tetradecahydro-1H-cyclopenta[a]phenanthren-17-yl)-1-((S)-3-hydroxypiperidin-1-yl)pentan-1-one]	< 0.25 µM	0.25 to 1 µM
C[C@H](CCC(=O)N1CC[C@@H](Oc2ccncc2)[C@@H](C)C1)[C@H]1CC[C@H]2[C@@H]3CC=C4C[C@@H](O)CC[C@]4(C)[C@H]3CC[C@]12C [Example 572, (R)-4-((3S,8S,9S,10R,13R,14S,17R)-3-hydroxy-10,13-dimethyl-2,3,4,7,8,9,10,11,12,13,14,15,16,17-tetradecahydro-1H-cyclopenta[a]phenanthren-17-yl)-1-((3S,4R)-3-methyl-4-(pyridin-4-yloxy)piperidin-1-yl)pentan-1-one]	< 0.25 µM	> 10 µM
C[C@H](CCC(=O)N1CCN(C(=O)N(C)CC2CC2)CC1)[C@H]1CC[C@H]2[C@@H]3CC=C4C[C@@H](O)CC[C@]4(C)[C@H]3CC[C@]12C [Example 210, N-(cyclopropylmethyl)-4-((R)-4-((3S,8S,9S,10R,13R,14S,17R)-3-hydroxy-10,13-dimethyl-2,3,4,7,8,9,10,11,12,13,14,15,16,17-tetradecahydro-1H-cyclopenta[a]phenanthren-17-yl)pentanoyl)-N-methylpiperazine-1-carboxamide]	< 0.25 µM	> 10 µM
COC(=O)N1CCC12CN(C(=O)CC[C@@H](C)[C@H]1CC[C@H]3[C@@H]4CC=C5C[C@@H](O)CC[C@]5(C)[C@H]4CC[C@]13C)C2 [Example 552, methyl6-((R)-4-((3S,8S,9S,10R,13R,14S,17R)-3-hydroxy-10,13-dimethyl-2,3,4,7,8,9,10,11,12,13,14,15,16,17-tetradecahydro-1H-cyclopenta[a]phenanthren-17-yl)pentanoyl)-1,6-diazaspiro[3.3]heptane-1-carboxylate]	1 to 10 µM	> 10 µM
COc1ccc(CC[C@@H](C)[C@H]2CC[C@H]3[C@@H]4CC=C5C[C@@H](O)CC[C@]5(C)[C@H]4CC[C@]23C)nc1 [Example 601, (1R,3aS,3bS,7S,9aR,9bS,11aR)-1-[(2R)-4-(5-methoxypyridin-2-yl)butan-2-yl]-9a,11a-dimethyl-1H,2H,3H,3aH,3bH,4H,6H,7H,8H,9H,9aH,9bH,10H,11H,11aH-cyclopenta[a]phenanthren-7-ol]	0.25 to 1 µM	1 to 10 µM
C[C@H](CC(=O)N1CCN(c2ccncn2)CC1)[C@H]1CC[C@H]2[C@@H]3CC=C4C[C@@H](O)CC[C@]4(C)[C@H]3CC[C@]12C [Example 595, (R)-3-((3S,8S,9S,10R,13R,14S,17R)-3-hydroxy-10,13-dimethyl-2,3,4,7,8,9,10,11,12,13,14,15,16,17-tetradecahydro-1H-cyclopenta[a]phenanthren-17-yl)-1-(4-(pyrimidin-4-yl)piperazin-1-yl)butan-1-one]	1 to 10 µM	> 10 µM
C[C@H](CCC(=O)N1CC(C)(CO)C1)[C@H]1CC[C@H]2[C@@H]3CC=C4C[C@@H](O)CC[C@]4(C)[C@H]3CC[C@]12C [Example 555, (R)-4-((3S,8S,9S,10R,13R,14S,17R)-3-hydroxy-10,13-dimethyl-2,3,4,7,8,9,10,11,12,13,14,15,16,17-tetradecahydro-1H-cyclopenta[a]phenanthren-17-yl)-1-(3-(hydroxymethyl)-3-methylazetidin-1-yl)pentan-1-one]	< 0.25 µM	> 10 µM
Cc1ccnc(CC[C@@H](C)[C@H]2CC[C@H]3[C@@H]4CC=C5C[C@@H](O)CC[C@]5(C)[C@H]4CC[C@]23C)n1 [Example 191, (3S,8S,9S,10R,13R,14S,17R)-10,13-dimethyl-17-((R)-4-(4-methylpyrimidin-2-yl)butan-2-yl)-2,3,4,7,8,9,10,11,12,13,14,15,16,17-tetradecahydro-1H-cyclopenta[a]phenanthren-3-ol]	< 0.25 µM	0.25 to 1 µM
COc1cc(N2CCN(C(=O)CC[C@@H](C)[C@H]3CC[C@H]4[C@@H]5CC=C6C[C@@H](O)CC[C@]6(C)[C@H]5CC[C@]34C)CC2)ncn1 [Example 203, (4R)-4-[(1R,3aS,3bS,7S,9aR,9bS,11aR)-7-hydroxy-9a,11a-dimethyl-1H,2H,3H,3aH,3bH,4H,6H,7H,8H,9H,9aH,9bH,10H,11H,11aH-cyclopenta[a]phenanthren-1-yl]-1-[4-(6-methoxypyrimidin-4-yl)piperazin-1-yl]pentan-1-one]	< 0.25 µM	> 10 µM
C[C@H](CCC(=O)N1CCC[C@H](c2ccccc2)C1)[C@H]1CC[C@H]2[C@@H]3CC=C4C[C@@H](O)CC[C@]4(C)[C@H]3CC[C@]12C [Example 77, (R)-4-((3S,8S,9S,10R,13R,14S,17R)-3-hydroxy-10,13-dimethyl-2,3,4,7,8,9,10,11,12,13,14,15,16,17-tetradecahydro-1H-cyclopenta[a]phenanthren-17-yl)-1-((R)-3-phenylpiperidin-1-yl) pentan-1-one]	< 0.25 µM	1 to 10 µM
C[C@H](CCC(=O)N1CCN(c2ncnn2C)CC1)[C@H]1CC[C@H]2[C@@H]3CC=C4C[C@@H](O)CC[C@]4(C)[C@H]3CC[C@]12C [Example 605, (R)-4-((3S,8S,9S,10R,13R,14S,17R)-3-hydroxy-10,13-dimethyl-2,3,4,7,8,9,10,11,12,13,14,15,16,17-tetradecahydro-1H-cyclopenta[a]phenanthren-17-yl)-1-(4-(1-methyl-1H-1,2,4-triazol-5-yl)piperazin-1-yl)pentan-1-one]	< 0.25 µM	> 10 µM
Cc1nnc(N2CCN(C(=O)CC[C@@H](C)[C@H]3CC[C@H]4[C@@H]5CC=C6C[C@@H](O)CC[C@]6(C)[C@H]5CC[C@]34C)CC2)o1 [Example 482, (R)-4-((3S,8S,9S,10R,13R,14S,17R)-3-hydroxy-10,13-dimethyl-2,3,4,7,8,9,10,11,12,13,14,15,16,17-tetradecahydro-1H-cyclopenta[a]phenanthren-17-yl)-1-(4-(5-methyl-1,3,4-oxadiazol-2-yl)piperazin-1-yl)pentan-1-one]	< 0.25 µM	> 10 µM
C[C@H](CCC(=O)N1CCN(C(=O)OC2CC2)CC1)[C@H]1CC[C@H]2[C@@H]3CC=C4C[C@@H](O)CC[C@]4(C)[C@H]3CC[C@]12C [Example 340, cyclopropyl4-[(4R)-4-[(1R,3aS,3bS,7S,9aR,9bS,11aR)-7-hydroxy-9a,11a-dimethyl-1H,2H,3H,3aH,3bH,4H,6H,7H,8H,9H,9aH,9bH,10H,11H,11aH-cyclopenta[a]phenanthren-1-yl]pentanoyl]piperazine-1-carboxylate]	< 0.25 µM	> 10 µM
C[C@H](CCC(=O)N1CCN(C(=O)c2ncccn2)CC1)[C@H]1CC[C@H]2[C@@H]3CC=C4C[C@@H](O)CC[C@]4(C)[C@H]3CC[C@]12C [Example 332, (R)-4-((3S,8S,9S,10R,13R,14S,17R)-3-hydroxy-10,13-dimethyl-2,3,4,7,8,9,10,11,12,13,14,15,16,17-tetradecahydro-1H-cyclopenta[a]phenanthren-17-yl)-1-(4-(pyrimidine-2-carbonyl)piperazin-1-yl)pentan-1-one]	< 0.25 µM	> 10 µM
C[C@H](CCC(=O)N1CCC2(CCOC2)CC1)[C@H]1CC[C@H]2[C@@H]3CC=C4C[C@@H](O)CC[C@]4(C)[C@H]3CC[C@]12C [Example 89, (R)-4-((3S,8S,9S,10R,13R,14S,17R)-3-hydroxy-10,13-dimethyl-2,3,4,7,8,9,10,11,12,13,14,15,16,17-tetradecahydro-1H-cyclopenta[a]phenanthren-17-yl)-1-(2-oxa-δ-azaspiro[4.5]decan-δ-yl)pentan-1-one]	< 0.25 µM	> 10 µM
C[C@H](CCc1ccc2ccccc2n1)[C@H]1CC[C@H]2[C@@H]3CC=C4C[C@@H](O)CC[C@]4(C)[C@H]3CC[C@]12C [Example 178, (3S,8S,9S,10R,13R,14S,17R)-10,13-dimethyl-17-((R)-4-(quinolin-2-yl)butan-2-yl)-2,3,4,7,8,9,10,11,12,13,14,15,16,17-tetradecahydro-1H-cyclopenta[a]phenanthren-3-ol]	0.25 to 1 µM	> 10 µM
C[C@H](CCc1ncccc1F)[C@H]1CC[C@H]2[C@@H]3CC=C4C[C@@H](O)CC[C@]4(C)[C@H]3CC[C@]12C [Example 164, (3S,8S,9S,10R,13R,14S,17R)-17-((R)-4-(3-fluoropyridin-2-yl)butan-2-yl)-10,13-dimethyl-2,3,4,7,8,9,10,11,12,13,14,15,16,17-tetradecahydro-1H-cyclopenta[a]phenanthren-3-ol]	0.25 to 1 µM	0.25 to 1 µM
